Test results taken from patent publication US7998984B2, “2-pyridone derivatives for the treatment of disease or condition in which inhibition of neutrophil elastase activity is beneficial” (AstraZeneca AB, priority 2006, dated 2011).

The molecules below were run against T1, Human Neutrophil Elastase (HNE) (Homo sapiens, UniProt P08246) (assay: Human Neutrophil Elastase Quenched-FRET Assay). Details: HNE 1.7 nM, substrate MeOSuc-AAPV-AMC 100 μM, 15 min pre-incubation, 30 min incubation at room temperature; read-out: Inhibition of Human Neutrophil Elastase IC50.
T1 construct: Human Neutrophil Elastase (HNE) purified from serum; purchased Calbiochem 324681; host or cells: purified from human serum (so in the source)
T1 sequence (P08246 30-247 limits assumed): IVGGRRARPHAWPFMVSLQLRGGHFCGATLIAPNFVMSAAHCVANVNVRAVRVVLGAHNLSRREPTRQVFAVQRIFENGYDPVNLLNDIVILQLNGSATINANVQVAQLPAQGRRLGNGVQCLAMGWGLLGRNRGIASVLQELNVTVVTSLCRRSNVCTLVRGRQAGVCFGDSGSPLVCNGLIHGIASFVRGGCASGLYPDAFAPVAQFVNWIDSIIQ
Assay type: biochemical
Experimental: Human Neutrophil Elastase Quenched-FRET Assay
HNE was stored in 50 mM sodium acetate (NaOAc), 200 mM sodium chloride (NaCl), pH 5.5 with added 30% glycerol at −20° C. […] The substrate was stored in dimethyl sulphoxide (DMSO) at −20° C. […] The assay buffer constitution was: 100 mM Tris(hydroxymethyl)aminomethane (TRIS) (pH 7.5) and 500 mM NaCl. The enzyme and the compounds were incubated at room temperature for 15 minutes. Then 30 μl substrate in assay buffer was added. The assay was incubated for 30 minutes at room temperature. […] The assay was then stopped by adding 60 μl stop solution (140 mM acetic acid, 200 mM sodium monochloroacetate, 60 mM sodium acetate, pH 4.3).

IC50 | Compound
0.26 nM | CNC(=O)c1cc(-c2nc(N)sc2-c2ccc(Cl)cc2)c(C)n(-c2cccc(C(F)(F)F)c2)c1=O [Example 3, 5-[2-Amino-5-(4-chlorophenyl)-1,3-thiazol-4-yl]-N,6-dimethyl-2-oxo-1-[3-(trifluoromethyl)-phenyl]-1,2-dihydropyridine-3-carboxamide]
1.6 nM | CNC(=O)c1cc(-c2ocnc2-c2ccc(Cl)cc2)c(C)n(-c2cccc(C(F)(F)F)c2)c1=O [Example 4, 5-[4-(4-Chlorophenyl)-1,3-oxazol-5-yl]-N,6-dimethyl-2-oxo-1-[3-(trifluoromethyl)phenyl]-1,2-dihydropyridine-3-carboxamide]
0.26 nM | CNC(=O)c1cc(-c2nc(N)sc2-c2ccc(C#N)cc2)c(C)n(-c2cccc(C(F)(F)F)c2)c1=O [Example 5, 5-[2-Amino-5-(4-cyanophenyl)-1,3-thiazol-4-yl]-N,6-dimethyl-2-oxo-1-[3-(trifluoromethyl)phenyl]-1,2-dihydropyridine-3-carboxamide]
0.93 nM | CNC(=O)c1cc(-c2ccnn2-c2ccc(C#N)cc2)c(C)n(-c2ccc(F)c(Cl)c2)c1=O [Example 6, 1-(3-Chloro-4-fluorophenyl)-5-[1-(4-cyanophenyl)-1H-pyrazol-5-yl]-N,6-dimethyl-2-oxo-1,2-dihydropyridine-3-carboxamide]
